Entries after “also recorded” stand apart in the source; their conditions may differ.
Test: Observations of appearance, structure and phase separation (Centrifuge Test)
Type: physicochemical
Details: sulfate

## CCCCCCCCCCCCCOS(=O)(=O)[O-].[Na+] [non-ethoxylated sodium tridecyl sulfate, sodium tridecyl sulfate]
  lamellar phase formation of personal cleansing compositions comprising the surfactant: did not form lamellar phase; also recorded: unable to produce a stable lamellar phase
